Data published in patent US20230133132A1, “NAMPT MODULATORS” (Cytokinetics, Inc., priority 2020, published 2023).

Legend:
human NAMPT = human NAMPT (Homo sapiens, UniProt P43490); assay: Human recombinant enzyme assay (NMN fluorescence biochemical assay)
Description: Compounds described herein were assayed for their ability to stimulate the synthesis of nicotinamide mononucleotide (NMN) by the enzyme NAMPT. The human recombinant enzyme assay measures the activation of the enzyme activity by compounds using recombinant enzyme and substrates in a buffered cell-free system. The assay conditions closely mimic cellular environments. Dose responses were measured using an assay to detect the formation of nicotinamide mono-nucleotide. All experiments were performed in the 384-well format. Generally, 0.5 μL of DMSO containing varying concentrations of the test compound was mixed with 10 μL of the enzyme reagent solution. Enzyme reactions were initiated with the addition of 10 μL of a solution containing the substrates. The final assay conditions were as follows: 6 nM human NAMPT, 2.5 mM ATP, 20 μM PRPP and 150 μM nicotinamide in 50 mM HEPES, pH 7.2, 1 mM DTT, 1 mM CHAPS 50 mM NaCl, 100 mM MgCl2. Following an incubation of 60 min at ambient temperature, 10 μL of 20% acetophenone in DMSO was added, followed by 10 μL of 2 M KOH and 40 μL of formic acid. The plates were read for fluorescence (Excitation/Emission=355 nm/460 nm) using an EnVision plate reader after 40 mins of incubation at ambient temperature.

endogenous NAMPT = molecular target: T1, endogenous NAMPT (Homo sapiens, UniProt P43490); assay: Cellular NAD+ modulation assay in SH-SY5Y cells; assay type: cell-based; settings: 40 hours
T1 construct: stimulate the endogenous NAMPT in a native cellular environment; endogenous in cells; host or cells: SH-SY5Y neuroblastoma cells
Description: The compounds described herein were also assayed for their ability to stimulate the endogenous NAMPT in a native cellular environment in the cellular NAD+ modulation assay, which measures the ability of the compound to modulate cellular NAD levels. Increased levels of NAD are expected by compounds that permeate the cells and activate the catalytic activity of the endogenous NAMPT.
Neuroblastoma SH-SY5Y cells were grown in 1:1 mixture of Eagle's Minimum Essential Medium and F12 Medium, along with 10% fetal bovine serum, in a humidified incubator with an atmosphere of 95% air and 5% C02 at 37° C. The assays were initiated by plating 20 μL of SH-SY5Y cells in culture medium with 0.1% fetal bovine serum, at a density of 5000 cells per well to a 384-well Corning™ BioCoat™ Poly-D-Lysine Multiwell Plates. The plates were incubated in the 37° C. incubators for a period of 5 hours. Compounds in DMSO were added to the plates in a volume of 120 nL using the Labcyte Echo Liquid Handlers. 5 μL of a 1.5 uM Doxorubicin solution in assay medium is added to each well. The plates are then incubated for 40 hours. 30 μL of a readout-solution containing 0.2 U/mL Diaphorase enzyme, 40 uM resazurin, 10 uM FMN, 0.8 U/mL Alcohol dehydrogenase, 3% ethanol, 0.4 mg/mL bovine serum albumin, 0.2% Triton X-100 in 100 mM Tris-HCl, 30 mM EDTA, pH 8.4. The plates were read for fluorescence (Excitation/Emission=540 nm/590 nm) using an EnVision plate reader after 60 mins of incubation at ambient temperature.

[1] = recombinant human NAMPT, NMN fluorescence, 60 min
[2] = 6 nM human NAMPT, 60 min, NMN formation by fluorescence
[3] = doxorubicin added, cellular NAD readout

Sequence of human NAMPT (P43490 whole entry): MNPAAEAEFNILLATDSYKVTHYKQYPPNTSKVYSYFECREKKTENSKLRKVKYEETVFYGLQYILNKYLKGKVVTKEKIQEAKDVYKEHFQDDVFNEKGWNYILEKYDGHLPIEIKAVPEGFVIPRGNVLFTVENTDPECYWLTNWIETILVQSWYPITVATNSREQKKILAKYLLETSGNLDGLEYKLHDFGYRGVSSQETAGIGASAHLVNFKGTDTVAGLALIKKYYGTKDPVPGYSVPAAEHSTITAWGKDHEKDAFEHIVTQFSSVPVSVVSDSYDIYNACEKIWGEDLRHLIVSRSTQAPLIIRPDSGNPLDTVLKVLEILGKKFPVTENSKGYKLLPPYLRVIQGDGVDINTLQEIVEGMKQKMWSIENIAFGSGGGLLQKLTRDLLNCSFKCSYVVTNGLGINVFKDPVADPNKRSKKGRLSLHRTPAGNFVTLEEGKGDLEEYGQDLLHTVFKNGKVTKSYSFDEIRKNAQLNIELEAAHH
T1 sequence (P43490 whole entry): as above

Row | Compound | EC50 (human NAMPT; [1]) [µM] | EC50 (endogenous NAMPT; doxorubicin) [µM] | AC1.4 (the concentration of compounds that generates 40% higher activity over basal) (human NAMPT; [2]) [µM] | AC0.3 (endogenous NAMPT; [3]) [µM] | further results
1 | CC(C)(O)CN1CCN(Cc2ccc(NC(=O)NCc3ccccc3)cc2)CC1 [Comparator A, reference compound] | 10.6 | 2.3 | – | – | potency relative to compounds with a halo or methoxy substituent at the R^1 position, as measured by AC1.4 (human NAMPT; comparison of AC1.4 values): five to ten times less potent
2 | CC(C)(O)CN1CCN(Cc2ccc(NC(=O)NCc3ccncc3)cc2)CC1 [Comparator B, reference compound] | 19.7 | > 20.1 | – | – | –
3 | CC(C)(O)CN1CCN(Cc2ccc(NC(=O)NCc3cn[nH]c3)cc2)CC1 [Comparator C, reference compound] | 35.1 | > 20.1 | – | – | –
4 | CC(C)(O)CN1CCN(Cc2ccc(NC(=O)NCc3cnco3)cc2)CC1 [Comparator D, reference compound] | 36.5 | > 20.1 | – | – | –
5 | CC(C)(O)CN1CCN(Cc2ccc(NC(=O)NCc3ccc(Cl)cc3)cc2)CC1 [Compound 36, {[(4-chlorophenyl)methyl]amino}-N-(4-{[4-(2-hydroxy-2-methylpropyl)piperazinyl]methyl}phenyl)carboxamide] | 3.1 | 0.16 | 0.15 | 0.15 | AC0.3 designation (endogenous NAMPT; [3]): A (AC0.3 values that are less than 0.5 μM)
6 | C[C@H](NCc1ccccc1)c1ccc(NC(=O)NCc2ccc(Cl)cc2)cc1 [Compound 40, [(4-{(1S)-1-[benzylamino]ethyl}phenyl)amino]-N-[(4-chlorophenyl)methyl]carboxamide] | – | – | – | – | AC1.4 Human (human NAMPT; recombinant human NAMPT, NMN fluorescence, 60 min, class symbols): A (AC1.4 values that are less than 0.5 μM); AC0.3 (endogenous NAMPT; doxorubicin, class symbols): C (AC0.3 values that are greater than 2.5 μM)
7 | CC(C)(O)CN1CCN(Cc2ccc(NC(=O)NCc3ccc(F)cc3)cc2)CC1 [Compound 167, {[(4-fluorophenyl)methyl]amino}-N-(4-{[4-(2-hydroxy-2-methylpropyl)piperazinyl]methyl}phenyl)carboxamide] | 7.5 | 1.4 | 0.78 | 1.2 | AC1.4 designation (human NAMPT; [2]): B (AC1.4 values that are between 0.5 μM and 2.5 μM)
8 | COc1ccc(CNC(=O)Nc2ccc(CN3CCN(CC(C)(C)O)CC3)cc2)cc1 [Compound 242, 1-(4-((4-(2-hydroxy-2-methylpropyl)piperazin-1-yl)methyl)phenyl)-3-(4-methoxybenzyl)urea] | 10.6 | 0.79 | 0.42 | 0.86 | –
